Source: US9174949B2, “Hedgehog inhibitors” (SELEXAGEN THERAPEUTICS, INC., priority 2010, dated 2015)

Tests used:
[1] = tested on: hedgehog pathway signaling; assay: Modified Method A: purmorphamine stimulated alkaline phosphatase activity in C3H10T1/2 cells; type: cell-based; conditions: Mus musculus, C3H 10T1/2, compound at 500 nM, 100 nM purmorphamine, 72 hours, read-out: Activity Ranking (percent activity compared to control alkaline phosphatase activity)
[2] = tested on: hedgehog pathway signaling; assay: Method A: cell differentiation assay, sonic hedgehog stimulated alkaline phosphatase activity; type: cell-based; conditions: Mus musculus, Shh-N 2 μg/mL, 72 hours, C3H10T1/2 or M2-10B4 cells
Protocol: The ability of compounds described in the current invention to inhibit hedgehog pathway signaling was determined from the following cell differentiation assays (Method A, or Modified Method A as described below) in which cellular alkaline phosphatase activity is assessed in the presence of control vehicle or test compound, as previously described in the literature (Wu et al., Chemistry & Biology, 11: 1229-1238, 2004; Couve-Privat, et al., Cancer Research, 64; 3559-3565, 2004; Dwyer et al., J. Biological Chemistry, 282: 8959-8968, 2007) with modifications as described below.
Method A: Mouse C3H10T1/2 (CCL-226™) or M2-10B4 (CRL-1972™) cells obtained from the American Type Tissue Culture Collection (Maryland, USA) were cultured to 60-80% confluence in Dulbecco's modified Eagle's Medium (C3H10T1/2 cells) containing heat-inactivated 10% fetal bovine serum or RPMI-1640 media (M2-10B4 cells) containing heat-inactivated 10% fetal bovine serum. Cell cultures were maintained in 10 U/mL penicillin, 100 μg/mL streptomycin and 2 mM glutamine. Cells were then trypsinized, counted and plated into 96-well microtiter plates prior to incubation overnight at 37° C. in 5% CO2. […] Similarly, an IC90 was determined. […]

Cc1nc(-c2ccc(N(C)C(=O)c3ccc(S(C)(=O)=O)cc3Cl)cc2)cs1 [Example 9, 2-chloro-N-methyl-4-(methylsulfonyl)-N-(4-(2-methylthiazol-4-yl)phenyl)benzamide] gave an activity at 0.5 µM [1] of 76 to 100%.
For Cc1nc(-c2ccc(NC(=O)c3ccc(C#N)cc3)cc2)cs1 [Example 18], the activity at 0.5 µM [1] was 26 to 50%.
For Cc1nc(-c2ccc(NC(=O)c3ccccc3Cl)cc2)cs1 [Example 14], the activity at 0.5 µM [1] was 0 to 25%.
Work on COc1ccc(C(=O)Nc2ccc(-c3csc(C)n3)cc2)c(CN2CCOCC2)c1 [Example 5] yielded an activity at 0.5 µM [1] of 0 to 25%.
With Cc1nc(-c2ccc(NC(=O)c3ccc(S(C)(=O)=O)cc3Cl)cc2Cl)cs1 [Example 7, 2-chloro-N-(3-chloro-4-(2-methylthiazol-4-yl)phenyl)-4-(methylsulfonyl)benzamide] the activity at 0.5 µM [1] was 51 to 75%.
CC(C)(O)c1nc(-c2ccc(NC(=O)c3ccc(S(C)(=O)=O)cc3Cl)cc2)cs1 [Example 12, 2-chloro-N-(4-(2-(2-hydroxypropan-2-yl)thiazol-4-yl)phenyl)-4-(methylsulfonyl)benzamide] was tested, and the activity at 0.5 µM [1] was 26 to 50%.
Molecule COc1ccc(C(=O)Nc2ccc(-c3csc(C)n3)cc2)c(Cl)c1 [Example 8] has an activity at 0.5 µM [1] of 0 to 25%.
COc1ccc(C(=O)Nc2ccc(-c3csc(C)n3)cc2)c(C)c1 [Example 16] showed an activity at 0.5 µM [1] of 0 to 25%.
With CS(=O)(=O)c1ccc(C(=O)Nc2ccc(-c3cscn3)cc2)c(Cl)c1 [Example 11, 2-chloro-(4-methylsulfonyl)-N-(4-(thiazol-4-yl)phenyl)benzamide] the activity at 0.5 µM [1] was 26 to 50%.
COc1ccc(C(=O)Nc2ccc(-c3csc(C)n3)cc2)c(F)c1 [Example 17] showed an activity at 0.5 µM [1] of 0 to 25%.
COc1ccc(C(=O)Nc2ccc(-c3csc(C)n3)cc2)cc1 [Example 3] gave an activity at 0.5 µM [1] of 0 to 25%.
Cc1nc(-c2ccc(NC(=O)c3ccccc3S(C)(=O)=O)cc2)cs1 [Example 15] showed an activity at 0.5 µM [1] of 76 to 100%.
Work on Cc1nc(-c2ccc(NC(=O)c3ccc(S(C)(=O)=O)cc3Cl)cc2)co1 [Example 6] yielded an activity at 0.5 µM [1] of 26 to 50%.
In the case of CS(=O)(=O)c1ccc(C(=O)Nc2ccc(-c3csc(CO)n3)cc2)c(Cl)c1 [Example 13, 2-chloro-N-(4-(2-(hydroxymethyl)thiazol-4-yl)phenyl)-4-(methylsulfonyl)benzamide], the activity at 0.5 µM [1] is reported as 51 to 75%.
Cc1nc(-c2ccc(NC(=O)c3ccc(S(C)(=O)=O)cc3Cl)cc2)cs1 [Example 4, 2-chloro-4-(methylsulfonyl)-N-(4-(2-methylthiazol-4-yl)phenyl)benzamide] gave an activity at 0.5 µM [1] of 0 to 25%, an IC90 [2] of 300 nM and an IC50 ([2]; read-out: IC50 (50% inhibition of sonic hedgehog stimulated alkaline phosphatase activity)) of 63 nM.
With Cc1nc(-c2ccc(NC(=O)c3ccc(Cl)cc3Cl)cc2)cs1 [Example 1, 2,4-dichloro-N-(4-(2-methylthiazol-4-yl)phenyl)benzamide] the activity at 0.5 µM [1] was 0 to 25%.
With O=C(Nc1ccc(-c2cscn2)cc1)c1ccccc1Cl [Example 10, 2-chloro-N-(4-(thiazol-4-yl)phenyl)benzamide] the activity at 0.5 µM [1] was 26 to 50%.
COc1cc(C(=O)Nc2ccc(-c3csc(C)n3)cc2)cc(OC)c1OC [Example 2] gave an activity at 0.5 µM [1] of 51 to 75%.
